Series [1] concerns MCF-7-derived mamospheres. In words: Formation of MCF-7-derived mamospheres (CSC tumorspheres). Type of series: cell-based. The following applies: for inhibition at 10 µM / inhibition at 1 µM / inhibition at 5 µM: Homo sapiens, MCF7, read-out: Inhibition of tumorsphere formation (%) MCF-7; for inhibition at 1 µM: @1 µM (footnote b); for Formation of tumorspheres (in words): MCF-7 mamospheres and HCT-116 colonospheres, noncytotoxic concentration; for inhibition at 5 µM: @5 µM (footnote d). How it is done: (§1) (BD Biosciences, Franklin Lakes, NJ, USA). All cells were maintained at 37 °C in a humidified incubator in an atmosphere of 5% CO2, and passaged every 2–3 days.
(§2) Additionally, they were cultured using RPMI media (Gibco/Life Technologies; Grand […]
(§3) Colonospheres, mamospheres and colony formation unit assays. 30.000 cells per well of MCF-7 cells (mamos pheres), HCT-116 cells (colonospheres) and CD34+ cells from patients (colony formation units) were seeded in serum free non- adherent medium or […]
(§4) MethoCult (Stem Cell). […]

A further series relates to MCF-7. In words: Cytotoxic effect in breast tumor cell line (MTT). The conditions noted are these: for viability at 10 µM / viability at 1 µM / viability at 5 µM: Homo sapiens; for viability at 10 µM: MCF7, read-out: Viability (%) MCF-7, @10 µM; for viability at 1 µM: MCF7, read-out: Viability (%) MCF-7, @1 µM (footnote b); for viability at 5 µM: MCF7, read-out: Viability (%) MCF-7, @5 µM (footnote d).

Series [2] has as its system HCT-116-derived colonospheres. In words: Formation of HCT-116-derived colonospheres (CSC tumorspheres). Type of series: cell-based. The following applies: for inhibition at 1 µM: @1 µM (footnote b). Here is the method: as §1, §2, §3, §4
A further series has as its system HCT-116. Briefly: Cytotoxic effect in colon tumor cell line (MTT). The conditions noted are these: for viability at 10 µM: HCT-116, read-out: Viability (%) HCT-116, @10 µM; for viability at 1 µM: HCT-116, read-out: Viability (%) HCT-116, @1 µM (footnote b).
A short description of series [3]: Viability of non-tumor fibroblast cell line. Type of series: cell-based. The following applies: human, IMR90 non-tumor fibroblasts; for viability at 48 h, 1 µM: @1 µM (footnote b). Here is the method:
The test compound was diluted in PBS.
Viability (%) tum orsphere form ation (%)

The mark [4] stands for this setting: Homo sapiens, HCT-116, @10 µM, read-out: Inhibition of tumorsphere formation (%) HCT-116.
[5] abbreviates: Homo sapiens, HCT-116, read-out: Inhibition of tumorsphere formation (%) HCT-116.

The inhibition is the percentage by which the read-out fell short of the control. For orientation: viability means a per cent measure of how many cells are alive, often set against a control. As to `COc1ccc([C@@H]2CC(=O)N(CC3CC3)C[C@H]2N)cc1` [1a], the inhibition at 10 µM in series [1] (@10 µM) and in series [2] (setting [4]) was 0% throughout. Further, the viability at 10 µM in the series with MCF-7 was 91 ± 7%; in the series with HCT-116 (Homo sapiens), 70 ± 2%.
As to `COc1ccc(C2CC(=O)N(CC3CC3)CC2N)cc1` (stereo not shown) [1b], the inhibition at 10 µM in series [1] (@10 µM) and in series [2] (setting [4]) was 0% throughout. Also, the viability at 10 µM in the series with MCF-7 was determined as 80 ± 2%; with HCT-116 (Homo sapiens), 97 ± 2%.
For the molecule `COc1ccc([C@@H]2CCN(CC3CC3)C[C@H]2N)cc1` [2a], the inhibition at 10 µM in series [1] (@10 µM) and in series [2] (setting [4]) was 0% throughout. Besides, the viability at 10 µM came to 96 ± 3% in the series on MCF-7 and 90 ± 1% in the series on HCT-116 (Homo sapiens).
With `COc1ccc([C@H]2CCN(CC3CC3)C[C@@H]2N)cc1` [2b], the inhibition at 10 µM in series [1] (@10 µM) and in series [2] (setting [4]) was 0% throughout. Also, the viability at 10 µM with MCF-7 came to 97 ± 3%; in the series with HCT-116 (Homo sapiens) it was 94 ± 3%.
For `COc1ccc([C@@H]2CCNC[C@H]2NCC2CC2)cc1` [3a], the inhibition at 10 µM in series [1] (@10 µM) and in series [2] (setting [4]) was 0% each time. For the same molecule, the viability at 10 µM was 98 ± 2% with MCF-7 and 95 ± 1% in the series with HCT-116 (Homo sapiens).
For the molecule `COc1ccc([C@H]2CCNC[C@@H]2NCC2CC2)cc1` [3b], the inhibition at 10 µM in series [1] (@10 µM) and in series [2] (setting [4]) was 0% throughout. In addition, the viability at 10 µM is 95 ± 4% with MCF-7 and 94 ± 3% with HCT-116 (Homo sapiens).
Regarding `COc1ccc([C@@H]2Cc3[nH]c4ccccc4c3[C@H](CCNCC3CC3)[C@H]2N)cc1` [4a, 4-{2-[(Cyclopropylmethyl)amino]ethyl}-2-(4-methoxyphenyl)-2,3,4,9-tetrahydro-1H-carbazol-3-amine], the inhibition at 1 µM in series [1] amounted to 0%. Further, the viability at 1 µM with MCF-7 was 92 ± 7%. Moreover, the inhibition at 0.1 µM in series [2] (Homo sapiens, HCT-116, @0.1 µM (footnote c), read-out: Inhibition of tumorsphere formation (%) HCT-116) stood at 0%. The viability at 0.1 µM with HCT-116 (Homo sapiens, HCT-116, read-out: Viability (%) HCT-116, @0.1 µM (footnote c)) came out at 85 ± 2%.
Consider `COc1ccc([C@H]2Oc3ccccc3[C@H]3[C@@H](N)[C@H](c4ccc(OC)cc4)C(CNCC4CC4)=C[C@@H]32)cc1` [5a], for which the inhibition at 1 µM in series [1] and in series [2] (setting [5]) was 100% in each case. The “Formation of tumorspheres (in words)” value in series [1] is reported as “completely inhibit”. The viability at 1 µM in the series on MCF-7 was 99 ± 1%; with HCT-116 (Homo sapiens) it was 87 ± 1%. The molecule also showed a viability at 48 h, 1 µM in series [3] of 83 ± 6%. In series [3], this molecule showed a viability at 48 h, 5 µM of 20 ± 5%.
As to `COc1ccc([C@H]2C(CNCC3CC3)=C[C@@H]3[C@H](c4ccccc4O[C@H]3c3ccc(OC)cc3)[C@@H]2N)cc1` [5b], in series [1], the inhibition at 1 µM is 100% and the “Formation of tumorspheres (in words)” value is reported as “completely inhibit”. Moreover, the viability at 1 µM with MCF-7 stood at 87 ± 1%. The inhibition at 1 µM in series [2] (setting [5]) worked out at 100%. In series [3], this molecule gave a viability at 48 h, 1 µM of 98 ± 2% and a viability at 48 h, 5 µM of 28 ± 7%. Moreover, in the series on HCT-116 (Homo sapiens), the viability at 1 µM was 94 ± 6%.
Regarding `COc1ccc([C@@H]2C(CNCC3CC3)=C[C@H]3[C@@H](c4ccccc4OC3(C)C)[C@H]2N)cc1` [6a], in series [1], the inhibition at 5 µM was 100% and the “Formation of tumorspheres (in words)” value is reported as “completely inhibit”. In addition, the viability at 5 µM with MCF-7 came to 94 ± 11%. Besides, the inhibition at 1 µM in series [2] (setting [5]) turned out to be 100%. In series [3], this molecule displayed a viability at 48 h, 1 µM of 95 ± 5% and a viability at 48 h, 5 µM of 53 ± 12%. The viability at 1 µM in the series on HCT-116 (Homo sapiens) was found to be 81 ± 6%.
On to `COc1ccc([C@H]2C(CNCC3CC3)=C[C@@H]3[C@H](c4ccccc4OC3(C)C)[C@@H]2N)cc1` [6b], for which, in series [1], the inhibition at 5 µM came to 100% and the “Formation of tumorspheres (in words)” value is “completely inhibit”. Also, in the series on MCF-7, the viability at 5 µM was 94 ± 5%. The inhibition at 1 µM in series [2] (setting [5]) was 100%. In addition, the viability at 48 h, 5 µM in series [3] came out at 57 ± 13%. Besides, in the series with HCT-116 (Homo sapiens), the viability at 1 µM turned out to be 78 ± 9%.
As to `COc1ccc2c(c1)[C@H]1C(=NO)N(CC3CC3)C[C@@H]1C(C)(C)O2` [7a], the inhibition at 10 µM in series [1] (@10 µM) and in series [2] (setting [4]) was 0% each time. Moreover, the viability at 10 µM with MCF-7 is 98 ± 1%; in the series with HCT-116 (Homo sapiens), 92 ± 1%.
Consider `COc1ccc2c(c1)C1C(=NO)N(CC3CC3)CC1C(C)(C)O2` (stereo not shown) [7b], for which the inhibition at 10 µM in series [1] (@10 µM) and in series [2] (setting [4]) was 0% throughout. For the same molecule, the figures for the viability at 10 µM with MCF-7 and in the series with HCT-116 (Homo sapiens) were 96 ± 2% and 95 ± 2%, respectively.
With `COc1ccc2c(c1)[C@H]1CN(CC3CC3)C[C@@H]1C(C)(C)O2` [8a], the inhibition at 10 µM in series [1] (@10 µM) and in series [2] (setting [4]) was 0% each time. In addition, the results for the viability at 10 µM in the series with MCF-7 and in the series on HCT-116 (Homo sapiens) were 65 ± 1% and 94 ± 6%, respectively.
For `COc1ccc2c(c1)C1CN(CC3CC3)CC1C(C)(C)O2` (stereo not shown) [8b], the inhibition at 10 µM in series [1] (@10 µM) and in series [2] (setting [4]) was 0% each time. Besides, the viability at 10 µM with MCF-7 is 98 ± 1%; with HCT-116 (Homo sapiens), 93 ± 2%.
With `COc1ccc2c(c1)[C@H]1C(=O)N(CC3CC3)C[C@@H]1C(C)(C)O2` [9a], the inhibition at 10 µM in series [1] (@10 µM) and in series [2] (setting [4]) was 0% throughout. Further, the viability at 10 µM is 73 ± 5% in the series on MCF-7 and 94 ± 2% with HCT-116 (Homo sapiens).
As to `COc1ccc2c(c1)C1C(=O)N(CC3CC3)CC1C(C)(C)O2` (stereo not shown) [9b], the inhibition at 10 µM in series [1] (@10 µM) and in series [2] (setting [4]) was 0% in each case. In addition, the results for the viability at 10 µM in the series on MCF-7 and with HCT-116 (Homo sapiens) were 65 ± 2% and 90 ± 3%, respectively.
Take `COc1ccc([C@@H]2Oc3ccccc3[C@H](CN)[C@H]2C(=O)NCC2CC2)cc1` [10b]: the inhibition at 10 µM in series [1] (@10 µM) and in series [2] (setting [4]) was 0% in each case. The viability at 10 µM amounted to 94 ± 5% in the series with MCF-7 and 70 ± 1% with HCT-116 (Homo sapiens).
Turning to `COc1ccc2c(c1)[C@@H](CN)[C@H](C(=O)NCC1CC1)C(C)(C)O2` [11a], the inhibition at 10 µM in series [1] (@10 µM) and in series [2] (setting [4]) was 0% each time. In addition, the viability at 10 µM in the series on MCF-7 worked out at 92 ± 2%; in the series with HCT-116 (Homo sapiens), 94 ± 2%.
On to `COc1ccc2c(c1)[C@H](CN)[C@@H](C(=O)NCC1CC1)C(C)(C)O2` [11b], for which the inhibition at 10 µM in series [1] (@10 µM) and in series [2] (setting [4]) was 0% in each case. The viability at 10 µM in the series with MCF-7 is 99 ± 1%; in the series on HCT-116 (Homo sapiens), 94 ± 2%.
As to `COc1ccc2c(c1)[C@@H](CN)[C@H](CNCC1CC1)C(C)(C)O2` [12a], the inhibition at 10 µM in series [1] (@10 µM) and in series [2] (setting [4]) was 0% throughout. Besides, the viability at 10 µM in the series with MCF-7 came out at 90 ± 2%; in the series on HCT-116 (Homo sapiens) it was 90 ± 4%.
Regarding `COc1ccc2c(c1)[C@H](CN)[C@@H](CNCC1CC1)C(C)(C)O2` [12b], the inhibition at 10 µM in series [1] (@10 µM) and in series [2] (setting [4]) was 0% each time. The figures for the viability at 10 µM in the series on MCF-7 and in the series on HCT-116 (Homo sapiens) were 73 ± 3% and 92 ± 3%, respectively.
As to `COc1ccc(C2C(CNCC3CC3)=Cc3nccnc3N2C)cc1` (stereo not shown) [13a], the inhibition at 10 µM in series [1] (@10 µM) and in series [2] (setting [4]) was 0% each time. The viability at 10 µM with HCT-116 (Homo sapiens) amounted to 85 ± 7%.
On to `COc1ccc(C2C(CNCC3CC3)=Cc3nccnc3N2C)cc1` (stereo not shown) [13b], for which the “Inhibition of tumorsphere formation (%) MCF-7” value in series [1] (@10 µM) is given as 0%. Also, the “Viability (%) MCF-7” value in the series on MCF-7 (@10 µM) is recorded as 89 ± 6%. The “Inhibition of tumorsphere formation (%) HCT-116” value in series [2] (@10 µM) turned out to be 0%. Also, the “Viability (%) HCT-116” value in the series with HCT-116 (@10 µM) was determined as 90 ± 3%.
